Columns and labels:
[1] = system: murine gut microbial communities; test: Bacterial conversion assay with fecal microbial communities; type: in vitro ADME; details: murine unfractionated fecal microbial communities
Experimental: (§1) All handling of human materials is conducted with the permission of the Yale Human Investigation Committee. Samples are collected and stored as described in A. L. Goodman et al., Extensive personal human gut microbiota culture collections characterized and manipulated in gnotobiotic mice, Proceedings of the National Academy of Sciences,108, 6252-6257 (2011), the content of which is incorporated by reference herein. In brief, a single fecal sample is collected from each healthy human donor, stored on ice for less than 12 hours prior to transport into an anaerobic chamber (Coy Laboratory Products) and homogenization in pre-reduced GMM containing 20% glycerol. Aliquots of 0.5 mL volume are anaerobically prepared in 1.8 mL glass E-Z vials (Wheaton Industries) and stored at −80° C. Murine fecal samples are collected from individually caged animals (2 males and 2 females) and are stored at −80° C. without further processing.
(§2) Frozen stocks are re-suspended in 4 mL pre-reduced GMM and incubated anaerobically at 37° C. for 14 h. Cultures are diluted (1:10) in 20% pre-reduced GMM containing BRV or SRV at 100 μM and further incubated at 25° C. anaerobically. […] Substrates and reaction product are extracted and quantified by LC-MS as described below.

[2] = system: human gut microbial communities; test: as above; type: in vitro ADME; details: human unfractionated fecal microbial communities
Experimental: as §1, §2

BT4554 = test: B. thetaiotaomicron loss-of-function screen, bt4554 deletion and complementation; type: in vitro ADME, Bacteroides thetaiotaomicron
Text: Two independent strategies were developed to identify the microbiome-encoded DMEs responsible for these chemical transformations. For members of the Bacteroides (the most prominent genus in the human gut microbiome in the experiments), Proteobacteria, and other genetically tractable species, Insertion Sequencing (INSeq) is used to make mapped, arrayed transposon mutant libraries as described in Goodman 2009 and Goodman 2011. From these libraries, a representative set of mutants was identified that collectively include disruptions in most non-essential genes. Each mutant was incubated with the pool of drugs metabolized by the parent species. Genes required for drug metabolism by LC-MS were identified as above.
1,352 B. thetaiotaomicron mutants were selected from an arrayed library as described in Goodman 2009 that disrupt ˜70% of its non-essential genes. Each mutant was incubated with a pool of 30 drugs metabolized by this organism. Drug levels were measured over time as above. […] FIGS. 10A-C show two examples: one of these is brivudine, an antiviral whose primary metabolite (bromovinyluracil; BVU) is dangerously toxic for patients taking 5-fluorouracil, a principal therapy for colorectal cancer. With reference to FIGS. 10A-C, transposon mutants representing disruptions in 70% of B. thetaiotaomicron (Bt) non-essential genes were screened for metabolism of 30 drugs targeted by the parent strain.
The contribution of microbial drug metabolism to serum drug and metabolite exposure was directly quantified by specifically modulating this activity in otherwise identical mice. To this end, the capacity of ten individual bacterial species was first determined, representing five major phyla that dominate the mammalian gut microbiota, for their capacity to convert BRV to BVU as illustrated in FIG. 14A. […]
Frozen stocks are re-suspended in 4 mL pre-reduced GMM and incubated anaerobically at 37° C. for 14 h. […] Substrates and reaction product are extracted and quantified by LC-MS as described below. […]

[3] = Liver S9 enzyme assay of conversion to BVU; type: in vitro ADME
Experimental: Human and murine S9 liver fractions are purchased from Thermo Fisher Scientific (HMS9L and MSMCPL, respectively). Enzyme assays are performed for the deglycosylation of arabinosyluracil derivatives. In brief, assays are performed at 37° C. Reaction volumes are 150 μL with liver S9 fractions at 5 μg/μL and BRV or SRV at 100 μM in 10 mM phosphate buffer (pH 7.4). Reactions are initiated by addition of drugs to pre-warmed reaction mixture. 10 μL samples are collected and quenched in 10 μL acetonitrile on ice at 0, 5, 10, 15, 20, 30, 45, 60, 90, 120, 180, 270, and 360 min after initiation. Substrates and reaction product are extracted and quantified by LC-MS as described below.

For `O=c1[nH]c(=O)n([C@H]2C[C@H](O)[C@@H](CO)O2)cc1/C=C/Br` [BRV, Brivudine], the “conversion of BRV to BVU” value [1] was “stoichiometric conversion to BVU”, the “conversion of BRV to BVU” value [2] was “stoichiometric conversion to BVU” and the “role of bt4554 in BRV conversion to BVU” value (BT4554; targeted gene deletion and complementation at different expression levels) was “necessary and sufficient”. The “conversion to BVU by mutant in BT4554” value (BT4554; transposon mutant, recapitulated by nonpolar deletion) was “unable to convert”, the “conversion of BRV to BVU” value ([3]; human S9 liver fractions) was “stoichiometric conversion to BVU” and the “conversion of BRV to BVU” value ([3]; murine S9 liver fractions) was “stoichiometric conversion to BVU”.

— patent US20210183467A1, “SYSTEM AND METHOD FOR USING MICROBIOME TO DE-RISK DRUG DEVELOPMENT” (YALE UNIVERSITY, priority 2018, published 2021)
